# Where two headings read alike, the source gives them in different places.
# How the values were obtained:
# HIV = test system: HIV; set-up: method as in PMID 29045830; details: dCA added to ART-suppressed mice; cited from earlier work
# [1] = set-up: method as in PMID 22817991, PMID 29045830, PMID 25613133; details: mice; cited from earlier work
# [2] = test system: Tat transactivation activity; test: Transactivation assay (luciferase) in HeLa-CD4-LTR-Luc cells transfected with FLAG-Tat; format: cell-based, HIV-1; details: 25 nM, 48 h
# Experimental: Supplementary file : FIG S9 Tat-TAR interaction blocked by dCA in HeLa-CD4-LTR-Luc cells. (A) Transactivation assays. HeLa-CD4-LTR-Luc cells, transfected with Tat or Tat Mut, were incubated with the indicated compounds (dCA and raltegravir [“Ralt.”], 25 nM) or DMSO. Forty-eight hours later, cells were lysed and cross-linked, and luciferase activity relative to the Bradford assay or ChIP TAR RNA (Fig. 6D) was determined. Data are the mean ± SD from n = 3 independent experiments. (B) Western blot of the amount of FLAG-Tat bound to FLAG-tagged beads after elution of the samples for ChIP TAR RNA, as control input. The input of FLAG-Tat and GAPDH as a loading control. Data are representative of n = 3 independent experiments. Statistical significance was determined using one-way ANOVA with post hoc Tukey’s test, comparing DMSO to the other conditions. ***, P < 0.0001. Download FIG S9, PDF file, 0.2 MB.
# Chromatin was immunoprecipitated with an anti-FLAG antibody, and qRT-PCR was performed to detect the presence of chromatin-coding TAR (Fig. 6D).
# Chromatin immunoprecipitation assay (CHIP). HeLa-CD4-LTR-Luc cells (4×10^6) were transfected with different constructs (PGK-FLAG Tat and PGK-FLAG Tat Mut). […] The relative proportions of co-immunoprecipitated DNA were determined on the basis of the threshold cycle for qRT-PCR. […]
# NL4-3 strain = test: HIV-1 NL4-3 infection of HeLa-CD4-LTR-LacZ reporter cells, LacZ measured 72 h later; format: cell-based; details: Human immunodeficiency virus 1, NL43
# From the text: To understand the structure-function relationship of the dCA molecule with respect to our structural model, we synthesized and characterized the ability of 11 analogs of dCA to inhibit HIV infection (Table 2). […] We used HeLa-CD4 cells stably expressing the HIV-1 5′ LTR driving β-galactosidase production (HeLa-CD4-LTR-LacZ cells) as a reporter for the infection with isolate NL4-3. Table 2 summarizes the IC50, 50% cytotoxic concentration (CC50), and therapeutic index (TI) for each compound. The loss of dCA activity was directly associated with the positioning and the chemical environment of the azote on the F ring and the presence of oxygen in ring B. Moreover, the E-F “skeleton angle” and the distance between the A-B-C-D and F rings affected the activity by more than 50-fold (analogs 7 and 10).
# The activity of Tat in HeLa-CD4-LTR-Luc and OM10.1 cells was verified by a transactivation assay as described in reference. In HeLa-CD4-LTR-LacZ cells, the assay was performed as described in reference. A detailed protocol is provided in Text S1.
# Transactivation assay. In HeLa-CD4-LTR-Luc cells and OM10.1 cells. The activity of Tat was verified by a transactivation assay as previously reported (13). Briefly, HeLa-CD4-LTR-Luc cells and OM10.1 were plated at 1×10^5 and 8x10^5 cells per well of a 6-well plate respectively. The following day, recombinant Tat protein was added to the cells in culture media without serum and in the presence of 100 μM of Chloroquine. Five hours later, serum was added at 5 % to the culture media. Cells were lysed 24 hrs later, protein concentration determined by Bradford assay and luciferase activity was measured for HeLa-CD4-LTR-Luc cells. Results corresponding to luciferase activity per protein concentration of each sample are shown as relative light unit (RLU). As for the OM10.1 cells, RNA was extracted using the RNA extraction kit (Qiagen) and DNA contamination was removed using Turbo-DNAse kit (Ambion). First-strand cDNA was synthesized using SuperscriptIII^TM first-strand cDNA kit (Invitrogen) and random hexamers as first-strand primers. qRT-PCR was performed with an aliquot of cDNA as template, using LightCycler? 480 SYBR Green I Master in a 20 µL reaction according to the manufacturer’s instructions. The mRNAs from each sample were used as negative control. Primer sequences for GAPDH (13) and all viral mRNAs as previously described (59). In HeLa-CD4-LTR-LacZ cells. It was performed as previously described (10). Briefly, cells were plated at 1×10^4 cells per well of a 96-well plate. Twenty-four hrs later HIV-1 NL4-3 strain was added in the presence of testing compound or DMSO. Seventy-two hrs post infection, cells were disrupted in lysis buffer (60 mM Na2HPO4, 40 mM NaH2PO4, 10 mM KCl, 10 mM MgSO4, 2.5 mM EDTA, 50 mM ß-mercaptoethanol, 0.125 % Nonidet P-40) and a quantitative chlorophenol red-ß-D-galactopyranoside (CPRG)-based (Boehringer Mannheim) assay was performed. The cell extracts were incubated in a reaction buffer (0.9 M phosphate buffer [pH 7.4], 9 mM MgCl2, 11 mM ß-mercaptoethanol, 7 mM CPRG) until a red color developed and measured with an LP400 (Becton Dickinson) plate reader at 572 nm.
smiles,measurement,setting,value
"CN(C)C1CC23CCC4(O2)C(=CCC2(C)C(c5ccc6ccncc6c5)=CCC24)C=C3C(O)C1O (centres unmarked) [dCA, didehydro-cortistatin A]",in vivo efficacy,HIV,systemically reduced viral mRNA in tissues and significantly delayed and reduced viral rebound levels upon treatment interruption
same,bioavailability,[1],good bioavailability in mice
same,"Tat transactivation activity (luciferase), transfected FLAG-Tat",[2],inhibited Tat transactivation activity
same,IC50,"NL4-3 strain; HeLa-CD4-LTR-LacZ cells infected with NL4-3, LacZ at 72 h, mean ± SD, n = 2 to 3, read-out: IC50",600 ± 300 pM
same,IC50,"NL4-3 strain; span of Table 2 and earlier value, read-out: dCA inhibitory activity in cell-based assays",600 to 2000 pM

# Source: article PMC6368365, “Didehydro-Cortistatin A Inhibits HIV-1 by Specifically Binding to the Unstructured Basic Region of Tat” (mBio, 2019)
